The values that follow come from patent US20250090622A1, “ANGIOTENSIN COMPOSITIONS AND METHODS RELATED THERETO” (LA JOLLA PHARMA, LLC, priority 2017, published 2025).

The structures appear in SMILES notation. Like-named read-outs stand apart in the source and are kept apart here.

For experiment [1], the system named is blood pressure. Conditions: intravenous dosing, rabbits; cited from earlier work.
Experiment [2] has as its system sepsis-induced hypotension. The following applies: porcine fecal peritonitis septic shock; hemodynamic effects similar to norepinephrine; cited from earlier work.
Experiment [3] relates to blood pressure. Conditions: intravenous dosing, rats; cited from earlier work.
Experiment [4] relates to blood pressure. Conditions: intravenous dosing, dogs; cited from earlier work.
Experiment [5] concerns hypotension in distributive shock. Put plainly: clinical study of angiotensin II in treating hypotension in distributive shock. The experiment is classed as in vivo, human. Conditions: 95% CI 4.76 to 13.3; P<0.001. How it is done:
Vials containing 2 milliliters of 2.5 mg/mL (mg) angiotensin II in 0.9% saline and 25 mg/mL mannitol were evaluated in a clinical study of angiotensin II in treating hypotension in distributive shock (Khanna et al., N Engl J Med 2017; 377:419-430). Patients were currently on other vasopressors but still hypotensive (mean arterial pressure (MAP)[…]65 mmHg). Administration of angiotensin II was begun at a rate of 20 ng/kg/min, and titrated up or down to achieve and maintain an increased MAP of 10 mmHg above baseline or at least 75 mmHg. For the first 3 hours of treatment, the other vasopressors were held constant and the maximum dose allowed of angiotensin II was 200 ng/kg/min. At 3 hours and 15 minutes, all vasopressors could be titrated to maintain a MAP between 65-75 mmHg and an angiotensin II rate of 1.25-40 ng/kg/min. Angiotensin II could be administered for up to 7 days in this study. In this study, about 1 vial of drug (5 mg) was sufficient to treat each patient for a 24-hour period, and patients were on the treatment for an average of 2 days. Most patients required at least 1 mg of drug per day.
A total of 344 patients were assigned to one of the two regimens; 321 received a study intervention (163 received angiotensin II, and 158 received placebo) and were included in the analysis.

As to `CC[C@H](C)[C@H](NC(=O)[C@H](Cc1ccc(O)cc1)NC(=O)[C@@H](NC(=O)[C@H](CCCNC(=N)N)NC(=O)[C@@H](N)CC(=O)O)C(C)C)C(=O)N[C@@H](Cc1c[nH]cn1)C(=O)N1CCC[C@H]1C(=O)N[C@@H](Cc1ccccc1)C(=O)O` [angiotensin II, H-Asp-Arg-Val-Try-Ile-His-Pro-Phe-OH], the “effect on blood pressure” value in the experiment on blood pressure [1], in the experiment with blood pressure [3] and in the experiment on blood pressure [4] was “increase in blood pressure” each time. Moreover, in experiment [2], the “effect on sepsis-induced hypotension” value is reported as “reversed sepsis-induced hypotension”. Further, in experiment [5], the “odds ratio for primary end point, angiotensin II vs placebo” value came out at 7.95.
